Tests used:
PLK4 = target: T1, PLK4 (Homo sapiens, UniProt O00444); test: Activity (IC50) of the Table 1 compounds as PLK4 inhibitors; format: biochemical; conditions: Table 1, IC50 class
T1 sequence (O00444 1-970): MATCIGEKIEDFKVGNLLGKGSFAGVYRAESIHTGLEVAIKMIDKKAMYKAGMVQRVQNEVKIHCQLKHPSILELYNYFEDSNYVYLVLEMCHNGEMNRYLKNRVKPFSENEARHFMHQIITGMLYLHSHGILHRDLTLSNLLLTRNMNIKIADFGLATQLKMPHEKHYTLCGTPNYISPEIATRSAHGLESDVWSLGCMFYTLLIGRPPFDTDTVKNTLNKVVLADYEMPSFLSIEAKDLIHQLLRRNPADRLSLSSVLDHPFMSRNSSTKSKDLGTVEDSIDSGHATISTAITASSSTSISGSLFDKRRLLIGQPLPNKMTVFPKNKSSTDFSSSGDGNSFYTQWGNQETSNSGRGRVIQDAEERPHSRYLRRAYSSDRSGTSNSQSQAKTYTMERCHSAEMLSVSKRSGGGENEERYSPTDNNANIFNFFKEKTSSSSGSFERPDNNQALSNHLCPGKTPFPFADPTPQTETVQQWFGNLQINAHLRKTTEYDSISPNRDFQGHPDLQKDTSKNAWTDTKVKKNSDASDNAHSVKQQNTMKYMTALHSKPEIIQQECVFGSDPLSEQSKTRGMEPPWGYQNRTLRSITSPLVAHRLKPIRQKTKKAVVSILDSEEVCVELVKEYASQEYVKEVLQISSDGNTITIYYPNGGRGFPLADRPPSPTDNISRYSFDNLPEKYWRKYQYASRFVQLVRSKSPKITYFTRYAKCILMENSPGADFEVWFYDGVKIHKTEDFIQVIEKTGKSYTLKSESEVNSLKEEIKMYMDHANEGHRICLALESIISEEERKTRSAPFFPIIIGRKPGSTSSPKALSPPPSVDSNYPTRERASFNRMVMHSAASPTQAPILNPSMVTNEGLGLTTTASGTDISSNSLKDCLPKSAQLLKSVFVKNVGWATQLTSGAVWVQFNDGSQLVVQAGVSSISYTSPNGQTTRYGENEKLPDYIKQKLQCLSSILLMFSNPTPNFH

[1] = system: caspase-3/7 activity in 'Sensitive' neuroblastoma and 'Not Sensitive' (RPE1, BT-12, BT-16) cell lines; test: Caspase activation assay; format: cell-based; conditions: four cell cycle durations
[2] = system: neuroblastoma cell lines (SH-SY5Y, CHP134, IMR32, CHP212, SK-N-SH, SK-N-F1); test: Proliferation (12-day passaging) assay, neuroblastoma cell lines; format: cell-based; conditions: 150 nM centrinone, 12 days, all 6 neuroblastoma cell lines
Experimental: (§1) All 6 of the neuroblastoma cell lines grew robustly in the presence of DMSO in 12-day passaging assays.
(§2) Plated cell numbers were adjusted to the cell line characteristics (doubling time and cell size). At 96-hour intervals, plates were harvested, counted and re-plated at 25,000-150,000 cells/plate. Cell counting was performed using a TC20 automated cell counter (Bio-Rad).

[3] = system: CHP134 cells harboring the G95L mutant PLK4; test: Proliferation (passaging) assay, CHP134 cells with G95L mutant PLK4; format: cell-based; conditions: 150 nM centrinone
Experimental: as §1
(§3) Cell lines: Cells were maintained in ATCC-recommended complete growth media with 100 U/mL penicillin and 100 μg/mL streptomycin at 37° C. and 5% CO2. The RPE-1 TRIM37Δ knockout cell line was previously described (Meitinger et al., 2016). The CHP134 and HCT116 TRIM37Δ knockout cell lines were generated by transfection and nucleofection, respectively, of preassembled RNPs using a TRIM37 specific gRNA ([…]). The CHP134 G95L cell line was generated as previously described (Wong et al., 2015). For generation of H2B-mRFP expressing cell lines, cells were infected with a H2B-mRFP expressing lentiviral construct (Meitinger et al., 2016). Populations of each cell line expressing H2B-mRFP were enriched by FACS. To knock down TP53 (p53), cells were infected with a lentivirus containing sh-p53 made using the plasmid shp53 pLKO.1 puro (Godar et al., Cell. 134:62-73 (2008)). Positive selection of sh-p53 expressing cells was performed 2 days after infection with 10 μg/ml puromycin.
as §2

[4] = system: RPE1, BT-12, BT-16, CHP212, CHP134 and SK-N-F1 cells; test: Assessing mitotic phenotypes and mitotic duration by live cell imaging; format: cell-based; conditions: for rates of anaphase failure and/or cell death during mitosis: three cell cycles in 150 nM centrinone
Experimental: To examine the effects of centrosome removal, progression through mitosis after centrosome depletion was analyzed in three control cell lines with low TRIM37 levels (RPE1, BT-12 and BT-16), and in the three cell lines with the highest TRIM37 levels (CHP212, CHP134 and SK-N-F1). All of the tested cell lines, with the exception of SK-N-F1, were p53+.
For cells that completed mitosis, the inventors measured mitotic duration to determine if they would be likely to die due to tripping the mitotic duration sensor. […] The mean duration of mitosis in control SK-N-F1 cells, a p53− neuroblastoma cell line, was longer (104.7 minutes).
Assessing mitotic phenotypes: First, the cell cycle duration of the indicated cell lines was determined for each cell line by imaging cells expressing H2B-mRFP for 48-72 hours. The mean time from the beginning the first mitosis (nuclear envelope breakdown) until the beginning of the second mitosis in each daughter cell was the cell line specific cell cycle duration. […] Cells were seeded into 96-well polystyrene plates at 10,000 cells/well, 14-16 hours before imaging. Images were acquired on a CQ1 spinning disk confocal systems (Yokogawa Electric Corporation) with an Olympus UPLSAPO40 X 40×0.95 objective and 2560×2160 sCMOS camera (Andor) at 37° C. and 5% CO2 at 2×2 binning. Image acquisition and data analysis were performed using CellVoyager software and ImageJ, respectively. 12-24 fields/well were imaged. 5×2 μm z-sections in RFP (25% power, 150 ms) channels were captured in each field at 4-minute intervals for 24 hours. Mitotic duration was measured as the interval between nuclear envelope breakdown and chromosome decondensation. Mitotic phenotypes were categorized into ‘bipolar’, ‘multipolar’, ‘cell death during mitosis’ and ‘anaphase failure’.

[5] = system: breast cancer cell lines (BT474, MCF7, MDA-MB-231); test: Proliferation (passaging) assay, breast cancer cell lines; format: cell-based; conditions: 150 nM centrinone, BT474 and MCF7 (TRIM37 locus amplified)
Experimental: Sensitivity to centrosome removal correlated with TRIM37 copy number in breast cancer as well. FIG. 3A is a graph plotting TRIM37 copy number versus expression level for breast cancer cell lines (data from the CCLE database; (Barretina et al., 2012)).
as §2

[6] = system: CHP134 cells in which TRIM37 was deleted, p53 was knocked down, or both; test: Proliferation (12-day passaging) assay, CHP134 TRIM37 deletion / p53 knockdown cells; format: cell-based
Experimental: as §3, §2

[7] = system: CHP134 cells and CHP134 clones with varying TRIM37 levels; test: ATPlite cellular proliferation assay in CHP134 clones; format: cell-based; conditions: 5 days in 125 nM centrinone, WT CHP134 cells
Experimental: After CRISPR targeting, CHP134 clones with varying TRIM37 copy numbers were isolated and the levels of TRIM37 protein were measured by quantitative western blotting. Alpha-tubulin was used as a blotting control. Clones with TRIM37 levels between 12 and 64% of the levels in the WT cell line were isolated. […] Results are expressed as the percent of the value for the equivalent DMSO-treated control and are plotted versus measured TRIM37 protein level. […] Thus, for centrinone-treated CHP134 cells, mitotic success and cell viability both decreased as TRIM37 levels increased.

[8] = system: RPE1 cells and primary cell cultures; conditions: cited from earlier work
[9] = system: control cell lines (HepG2, BT-12, BT-16, SK-ES-1, A673); test: Proliferation (12-day passaging) assay, control cell lines; format: cell-based; conditions: 150 nM centrinone, 12 days, five control cell lines
Experimental: as §1, §2

IC50 (PLK4)	SMILES	also measured
< 100 nM	COc1c(Nc2cc(C)[nH]n2)nc(Sc2ccc(NC(C)=O)cc2)nc1N1CCN(CCN2CCCCC2)CC1	–
< 100 nM	COc1c(Nc2cc(C)[nH]n2)nc(Sc2ccc(NC(C)=O)cc2)nc1N1CCN(CCCN(C)C)CC1	–
< 100 nM	COc1c(Nc2cc(C)[nH]n2)nc(Sc2ccc(NC(=O)C(F)(F)F)cc2)nc1N1CCN(CCN(C)C)CC1	–
< 100 nM	CNC(=O)Nc1ccc(Sc2nc(Nc3cc(C)[nH]n3)c(OC)c(N3CCN(CCN(C)C)CC3)n2)cc1	–
< 100 nM	COc1c(Nc2cc(C)[nH]n2)nc(Sc2ccc(NC(C)=O)cc2)nc1N1CCN(CCNC(C)=O)CC1	–
< 100 nM	CNCCN1CCN(c2nc(Sc3ccc(NC(C)=O)cc3)nc(Nc3cc(C)[nH]n3)c2OC)CC1	–
< 100 nM	COc1c(Nc2cc(C)[nH]n2)nc(Sc2ccc(NC(N)=O)cc2)nc1N1CCN(CCN(C)C)CC1	–
< 100 nM	COc1c(Nc2cc(C)[nH]n2)nc(Sc2ccc(NC(C)=O)cc2)nc1N1CCN(CC(=O)N(C)C)CC1	–

Second part, the compound before the results:

SMILES	IC50 (PLK4)	also measured
COCCNc1nc(Sc2ccc(NC(=O)C3CC3)cc2)nc(Nc2cc(C)[nH]n2)c1C	< 100 nM	–
Cc1cc(Nc2nc(Sc3ccc(NC(=O)C4CC4)cc3)nc(N3CCCCC3)c2C)n[nH]1	< 100 nM	–
COc1c(Nc2cc(C)[nH]n2)nc(Sc2ccc(NC(C)=O)cc2)nc1N1CCC(O)C1 (stereo not shown)	< 100 nM	–
CSc1nc(Nc2cc(C)[nH]n2)c(C)c(N2CCN(CCN(C)C)CC2)n1	< 100 nM	–
CC(=O)Nc1ccc(Sc2nc(Nc3cc(C)[nH]n3)c(C)c(N3CCOC[C@H]3C)n2)cc1	< 100 nM	–
COc1c(Nc2cc(C)[nH]n2)nc(Sc2ccc(S(=O)(=O)Cc3ccccc3F)cc2)nc1N1CCOCC1	< 100 nM	–
COc1c(Nc2cc(C)[nH]n2)nc(Sc2ccc(S(=O)(=O)Cc3ccccc3[N+](=O)[O-])cc2)nc1N1CCN(CCN(C)C)CC1	< 100 nM	–
COc1c(Nc2cc(C)[nH]n2)nc(Sc2ccc(NC(C)=O)cc2)nc1N1CCOC[C@@H]1C	< 100 nM	–
COc1c(Nc2cc(C)[nH]n2)nc(Sc2ccc(NC(C)=O)cc2)nc1N1CCOC[C@H]1C	< 100 nM	–
COc1c(Nc2cc(C)[nH]n2)nc(Sc2ccc(S(=O)(=O)Cc3cccc(C(F)(F)F)c3)cc2)nc1N1CCN(CCN(C)C)CC1	< 100 nM	–
COc1c(Nc2cc(C)[nH]n2)nc(Sc2ccc(S(=O)(=O)Cc3cccc(F)c3F)cc2)nc1N1CCN(CCN(C)C)CC1	< 100 nM	–
CC(=O)Nc1ccc(Sc2nc(Cc3cc(C)[nH]n3)c(C)c(NC3CCN(C)CC3)n2)cc1	< 100 nM	–
CC(=O)Nc1ccc(Sc2nc(Nc3cc(C)[nH]n3)c(C)c(NC3CCNCC3)n2)cc1	< 100 nM	–
COc1c(Nc2cc(C)[nH]n2)nc(Sc2ccc(NC(C)=O)cc2)nc1NC1CCN(C)CC1	< 100 nM	–
COc1c(Nc2cc(C)[nH]n2)nc(Sc2ccc(NC(C)=O)cc2)nc1N1CCC(C(=O)N(C)C)CC1	< 100 nM	–
COc1c(Nc2cc(C)[nH]n2)nc(Sc2ccc(S(=O)(=O)Cc3cccc([N+](=O)[O-])c3F)cc2F)nc1N1CCCCC1 [centrinone B]	–	caspase activity ([1]; 500 nM centrinone B, compared with centrinone): Comparable levels of caspase activity
COc1c(Nc2cc(C)[nH]n2)nc(Sc2ccc(S(=O)(=O)Cc3cccc([N+](=O)[O-])c3F)cc2F)nc1N1CCOCC1 [centrinone]	–	cell number in passaging assay [2]: cell number rapidly declined to zero; proliferation in passaging assay [3]: proliferated in centrinone at a rate comparable to non-mutant cells in DMSO; mean duration of mitosis after centrosome removal ([4]; CHP134): 257 min; cells that fail to segregate their chromosomes ([4]; CHP134, absence of centrioles (FIG. 5A)): about 36%; mean duration of mitosis after centrosome removal ([4]; CHP212): 221 min; mitotic duration ([4]; control RPE1 cells and RPE1 TRIM37Δ reconstituted with wild-type TRIM37, after centrinone): substantial increase in mitotic duration; rates of anaphase failure and/or cell death during mitosis ([4]; cell lines with high TRIM37 levels (CHP212, CHP134, SK-N-F1)): 31-74%; rates of anaphase failure and/or cell death during mitosis ([4]; three cell lines with low TRIM37 levels (RPE1, BT-12, BT-16)): 3-14%; sensitivity to centrosome removal in passaging assay [5]: highly sensitive; proliferation in passaging assay ([6]; centrinone, CHP134 with TRIM37 deleted and p53 knocked down): robust proliferation in centrinone; proliferation in 12-day passaging assay ([6]; centrinone, CHP134 with shRNA-mediated knockdown of p53): allowed CHP134 cells to proliferate; proliferation in 12-day passaging assay ([6]; centrinone-treated CHP134, TRIM37 deletion): enabled their proliferation; cellular proliferation (ATPlite), percent of DMSO-treated control [7]: loss in proliferation comparable to that of the two highest mutant clones; response to centrinone-induced centrosome loss ([8]; RPE1 cells and 3 primary cell cultures with intact p53 pathway (Wong et al.)): stabilize p53 and arrest in G1; effect on centriole duplication ([8]; centrinone treatment (Wong et al.)): blocks centriole duplication; proliferation in passaging assay [9]: continued to proliferate; caspase activity ([1]; 150 nM centrinone, 'Not Sensitive' cell lines (RPE1, BT-12, BT-16)): relatively low levels; caspase activity ([1]; 150 nM centrinone, three 'Sensitive' neuroblastoma cell lines): high levels of caspase activity
COc1c(Nc2cc(C)[nH]n2)nc(Sc2ccc(S(=O)(=O)Cc3cccc([N+](=O)[O-])c3F)cc2F)nc1N1CCCCC1 [drawing 376]	< 100 nM	–
